How the values were obtained:
autistic patients = details: oxcarbazepine alone vs. placebo, 2011 to 2021; cited from earlier work
[1] = tested on: ASD aggression toward others or self and paranoia/social isolation; details: for aggression and self-injury: Example 1: ASD person (when on the combination); for aggression and self-injury / paranoia/social isolation behavior: combination dosed twice daily as in TABLE 1; for loss of effectiveness (tachyphylaxis): after two years use

For `NC(=O)N1c2ccccc2CC(=O)c2ccccc21` [oxcarbazepine], the “adverse effects in autistic subjects” value (autistic patients) is listed as “so many adverse effects in autistic subjects that they drop out of the study”.
In the case of `CNCCC(Oc1ccc(C(F)(F)F)cc1)c1ccccc1` (stereo not drawn) [fluoxetine], the “ability to attend school” value ([1]; Example 1: ASD person) was “unable to attend schooling”, the aggression and self-injury [1] was “self-injury slightly decreased” and the paranoia/social isolation behavior ([1]; Example 1: ASD person) was “remained paranoid”.
With `Cc1nc2n(c(=O)c1CCN1CCC(c3noc4cc(F)ccc34)CC1)CCCC2` [risperidone] the “self-injury behavior, aggression toward others and social isolation symptoms” value ([1]; Example 3: adult ASD, combination dosed early morning and after 5:00 pm) was “could no longer be successfully treated” and the “loss of effectiveness (tachyphylaxis)” value ([1]; summary over the ASD subjects) was “tachyphylactic loss of effectiveness”.
In the case of `O=C1CCc2ccc(OCCCCN3CCN(c4cccc(Cl)c4Cl)CC3)cc2N1` [aripiprazole], the “dyskinesia / tardive dyskinesia and dystonias” value ([1]; Example 1: ASD person) was “developed tardive dyskinesia and dystonias”, the aggression and self-injury [1] was “successful alleviation of aggression” and the paranoia/social isolation behavior ([1]; Example 1: ASD person) was “improvement in paranoia/social isolation behaviors”. The “drug-induced hallucinations, aggression and paranoia” value ([1]; Example 1: within a half hour of taking the drug, after 1 and ½ years of use) was “induced hallucinations, severe aggression and paranoia”, the “loss of effectiveness (tachyphylaxis)” value ([1]; summary over the ASD subjects) was “tachyphylactic loss of effectiveness” and the “tardive dyskinesia / dystonic side effects” value ([1]; summary over the ASD subjects, long-term use (two years for the antipsychotics)) was “developed tardive dyskinesia”.

— patent publication US12161609B2, “Composition and method for treating autism spectrum disorder (ASD) symptoms of paranoia with self isolation and/or aggression” (priority 2021, dated 2024)
